row,Compound,melting point [°C]
1,FC(F)=Cc1nn(-c2c(Cl)cc(C(F)(F)F)cc2Cl)cc1C1CC1(Br)Br (stereo not drawn),71 to 73
2,CC1(C)CC(OC(=O)NNC(=O)OC2CC(C)(C)N(OC3CCCCC3)C(C)(C)C2)CC(C)(C)N1OC1CCCCC1,150 to 152
3,CC(C#Cc1cccc(C2=NCC(c3ccccc3)O2)c1)N(O)C(N)=O (stereo not drawn),145 to 146
4,NC(=O)CCCSc1nccc(NC(N)=NCC(F)(F)F)n1,202 to 203
5,COC(=O)c1n[nH]c(=O)c2ccc(Cl)cc12,222 to 223
6,CCCCCCCCCCC1(CCCCCCCCCC)c2cc(C=O)ccc2-c2ccc(N(c3ccccc3)c3ccccc3)cc21,77 to 78.5
7,CC(C)n1nc(C(=O)Cl)c2ccccc21,63 to 64
8,CC(CCC(=O)C(C)(C)OO)C1CCC2C3CC=C4CC(O)CCC4(C)C3CCC12C (stereo not drawn),146 to 147
9,Cc1cc(-c2cn[nH]c2N)cc(C)n1,222
10,Cc1ccc(S(=O)(=O)N2CC=CC2)cc1,123 to 124
11,CC1CN(c2c(F)cc3c(=O)c(C(=O)O)cn(C4CC4)c3c2Cl)CC1NC(=O)OC(C)(C)C (stereo not drawn),210 to 213
12,CCCCc1cnc(-c2ccc(N)cc2)nc1,154 to 156
13,COc1ccc2nc(N3CCNCC3)cc(C(F)(F)F)c2c1,130
14,O=C(NCCCCn1cncn1)c1ccc(Cl)s1,97 to 99
15,O=[N+]([O-])N=C1NCCCN1CC1CCOC1 (stereo not drawn),87.5 to 90.8
16,Cc1cccc(Cl)c1-n1nc(C(C)C)c(C(N)=O)c1N,72 to 74
17,CCCCCCCCCCCCCCCCCCOc1coc(CO)cc1=O,71 to 73
18,O=C1NCCN1c1ccc(C2CCN(C(=O)C(F)(F)F)CC2)cc1,198 to 201
19,CC(C)c1nc(Cl)nc(-c2ccc(F)cc2)c1Br,99 to 101
20,CCn1c(=Nc2ccccc2)sc2ncccc2c1=O,117 to 118
21,N#CC1(SCc2ccccc2)C2CC3CC(C2)CC1C3 (stereo not drawn),73 to 75
22,CCn1c(=O)c2c(nc(/C=C/c3cccc(O)c3O)n2C)n(CC)c1=O,242 to 244
23,CCNC(=O)c1c[nH]c2ncc(-c3nn(C)c4cc(Cl)ccc34)nc12,373 to 377
24,CC(=O)C(=Cc1ccccc1)c1ccncc1,101 to 103
25,N#Cc1c(Br)c(Br)n(C(=O)c2ccc(Cl)cc2)c1Br,154 to 157
26,O=C(O)C1CCc2cc(Cl)c(C3CCCCC3)cc21 (stereo not drawn),140 to 143

row,Compound,melting point [°C]
1,CC1(C)COC(=O)N1c1nc(-c2ccc(C#N)c(F)c2)cs1,204 to 206
2,Cc1cccc(C)c1N1C(=O)c2ccc(C(=O)O)cc2C1=O,210 to 213
3,Cc1ccc(S(=O)(=O)NCc2nc(C(C)C)c(Sc3cc(Cl)cc(Cl)c3)n2C)cc1,85 to 87
4,CC1CCN(C(=O)NCCc2ccc(S(=O)(=O)NC(=O)NC3CCCCC3)cc2)C(=O)C1 (stereo not drawn),176 to 178
5,Nc1ccc2c(c1)CCN(C(=O)C(F)(F)F)CC2,160 to 162
6,Cc1cccc(OCCCN2CCC(OC(c3ccccc3)c3ccccc3)CC2)c1NS(C)(=O)=O,132
7,Cc1ccc(S(=O)(=O)N2c3ccc(Cl)cc3C(O)(c3ccccc3Cl)C2C(=O)N(C)C)cc1 (stereo not drawn),220 to 221
8,Nc1cc(OCC2=CCCSC2)c(Cl)cc1F,73 to 74
9,COCCOc1ccc(CCCOc2cc(CCC(=O)O)n(C)n2)c(OCc2ccc(Cl)cc2Cl)c1,128 to 130
10,CCOC(=O)CCCOc1ccc(-c2cc(C#N)c(=O)[nH]c2C)cc1,222 to 224
11,CCOC(=O)C(Cc1ccc(NCc2ccc3cc(OS(C)(=O)=O)ccc3c2)cc1)OC (stereo not drawn),94 to 96
12,CCOn1nnc2ccc(C(C)n3ccnc3)cc21 (stereo not drawn),81.1
13,Cc1ccc(NC(=O)c2c(Cl)cccc2Cl)c2nccc(-n3ccnc3)c12,236
14,CCOC(=O)CC(NC(=O)c1cccc(Cl)c1)C(=O)c1ccsc1 (stereo not drawn),63 to 65
15,COc1ccc2c(c1)c(-c1cc3nccnc3[nH]1)cn2CC(=O)N1CCOCC1,263 to 267
16,CC(=O)OCc1nn(-c2ccc(F)cc2)c2c1CCCC2Cc1cccc2ccccc12 (stereo not drawn),142 to 144
17,CC(CC(=O)O)NC(=O)c1ccccc1 (stereo not drawn),150 to 152
18,CCN(CC)OCc1cc(C(C)(C)C)c(O)c(C(C)(C)C)c1,129 to 137
19,Cc1ccc2c(=O)n(CCCN3CC=C(c4ccc(Cl)cc4)CC3)c(=O)[nH]c2c1,199 to 201
20,CCOCCNC(=O)c1c(Cl)cccc1[Si](C)(C)C,71 to 73
21,Nc1ccc(Sc2ccc3c(c2)OCC(=O)N3)cc1,232 to 234
22,COc1ccc(C(=O)Nc2ccc3ccc(C=O)nc3n2)cc1,194
23,CCOCc1nc2c(N)nc3cc(-c4ccccc4)ccc3c2n1CC1CCN(C(=O)OC(C)(C)C)CC1,194 to 195
24,O=C(OCCn1ccnc1)C(O)c1ccccc1 (stereo not drawn),131 to 132
25,O=c1c2c(CCc3cccc([N+](=O)[O-])c3)n[nH]c2c2cccnc2n1-c1ccccc1,245 to 247
26,O=c1ccn(-c2ccncc2)nc1-c1ccnn1-c1ccccc1,202 to 203

row,Compound,melting point [°C]
1,CCc1cc(C)c(Br)c(CC)c1-c1c(O)c(C)nn(C)c1=O,235 to 236
2,CC(C)(CNc1ccc(C2=NNC(=O)CC2)cc1)NCC(O)COc1cc(Cl)ccc1C#N (stereo not drawn),160 to 162
3,CCOC(=O)c1cnn(-c2ccccn2)c1C#N,112 to 114
4,CC(C)N1CCCN=C1SC1=C(O)CC(c2ccccc2)OC1=O (stereo not drawn),103 to 105
5,O=C(CC1CCNCC1)c1ccc(N2CCCC2)cc1,144 to 145
6,O=Cc1c2ccccc2cc2cccc(SCCO)c12,103 to 104
7,COc1ccc2ncccc2c1C1OC(=O)NC1=O (stereo not drawn),144 to 146
8,CCOC(=O)N1CCC(Nc2ccc(Cl)cc2N)CC1,150
9,Cc1sc2c(c1C)C(c1ccc(Cl)cc1)=NC(CC(=O)N1CCOCC1)c1nnc(C)n1-2 (stereo not drawn),252 to 254
10,CCCCCCCCCCc1ccc(C(=O)CCCCC(=O)O)cc1,84 to 85
11,O=C(NC1CCC(CCN2CCC(c3cccc4c3CCO4)CC2)CC1)C1CCCO1 (racemic),160
12,CC/C(=C\C=C\C(=O)Oc1ccc([N+](=O)[O-])cc1)c1ccc(OC)cc1,112 to 114
13,O=C(Cl)c1csc(=O)[nH]1,184
14,C/C=C/C(=O)N1C(=O)OC(C)(C)[C@H]1c1ccccc1,104
15,C=CCOc1cc(F)nc(N)n1,62 to 66
16,Nc1cc(Br)cc2cccnc12,142 to 145
17,COc1ccc2nc(SCc3nccc(N4CCOCC4)c3Cl)[nH]c2n1,210
18,O=C(Cn1ccnc1)N1CCC(Oc2c(F)c(F)c(F)c(F)c2F)CC1,95 to 96
19,CC(c1ccccc1N1CCCCC1)C(C(N)=O)c1ccc(C(=O)N(C)C)cc1 (stereo not drawn),148 to 150
20,Nc1ccc(Cl)cc1Cc1ccccc1F,175 to 181
21,CS(=O)(=O)NC(=O)C1(CCCCCCCCCCCCC2(C(=O)NCCO)CC2)CC1,104 to 105
22,O=C1OCCn2c1cc(=O)c(O)c2C(O)c1ccc(F)cc1 (stereo not drawn),221 to 225
23,Fc1ccc(-c2ncn(CCN3CCOCC3)c2-c2ccncc2)cc1,114 to 115
24,O=c1[nH]c(=O)c2nc3ccccc3nc2[nH]1,300
25,CCOC(=O)N1Cc2ccccc2C(Oc2ccc(Cl)cc2)C1 (stereo not drawn),78.5 to 79.5
26,COc1ccc(-c2oncc2CO)cc1OC,83 to 84

row,Compound,melting point [°C]
1,CCOC(=O)CNc1c(C)cccc1[N+](=O)[O-],49 to 52
2,NS(=O)(=O)c1ccc(NS(=O)(=O)/C=C/c2ccccc2)cc1,171 to 173
3,COc1cccc(C(=O)Nc2ccc(C(=O)c3ccccc3)cc2)c1,139 to 141
4,O=C(NC1N=C(c2ccccc2)c2ccccc2NC1=O)c1cccc2ccccc12 (racemic),162 to 167
5,COc1ccccc1C(=O)OCC(=O)c1ccccc1,78 to 79
6,COC=Nc1c(SC)c(-c2ncon2)nn1-c1c(Cl)cc(C(F)(F)F)cc1Cl,119 to 121
7,NCC(C(=O)O)C1CCCCC1 (stereo not drawn),238 to 240
8,COc1ccc(-n2nc(-c3ccc(C)cc3)c(C(N)=O)c2N)cc1,174 to 175
9,CCN(C(=O)N(C)C)c1nnc(S(=O)(=O)N(C)C)s1,75 to 77
10,CC(=O)Nc1nc(CN2CCC(c3c[nH]c4ccccc34)CC2)cs1,204 to 207
11,COc1ccc(NC(=O)Nc2c(C)cc(Oc3ccc4nc(COc5ccc(CC6SC(=O)NC6=O)cc5)n(C)c4c3)cc2C)cc1 (stereo not drawn),229 to 231
12,CC(CO)C1CCC2C3CC=C4CC(O)CC(O)C4(C)C3CCC12C (stereo not drawn),205 to 207
13,Cc1csc(NC(=O)C2=C(O)c3ccccc3N(c3ccccc3)C2)n1,228 to 230
14,CC(=O)N1CCN(C(C)=O)C1=Nc1ccc(Cl)cc1Cl,113 to 115
15,C[C@@H](NC(=O)[C@H](Cc1ccc(OCc2ccccc2)cc1)NC(=O)[C@@H](N)COCc1ccccc1)C(=O)O,121 to 122
16,CCOc1cccc(-c2nc3n(n2)Cc2ccccc2-3)c1,166 to 167
17,CC(CN(C)C)Oc1ccc(-c2nn(CC(=O)O)c3ncccc23)cc1 (stereo not drawn),210 to 211
18,CC1CCc2c(F)c(F)cc3c(=O)[nH]c(=O)n1c23 (stereo not drawn),212 to 214
19,NS(=O)(=O)c1ccc(-n2nc(C(F)(F)F)cc2-c2ccc(OS(=O)(=O)C(F)(F)F)c(Cl)c2)cn1,118 to 120
20,Cc1cccc(C(=O)Nc2nc(=O)c3ccccc3n2C)c1,266 to 269
21,CC(C)Cn1nc(-c2ccc(F)c(F)c2)cc(COS(C)(=O)=O)c1=O,113
22,CCCN(CC(O)COc1ccc2c(=O)cc(-c3ccccc3)oc2c1)C(=O)OCc1ccccc1 (stereo not drawn),92 to 94
23,Clc1cc(Cl)c(C#C[Si](c2ccccc2)(c2ccccc2)c2ccccc2)c(Cl)c1,115 to 120
24,COC(=O)C(C)(C)Oc1cc(C)c(C)c(Br)c1C,66 to 68
25,COc1ccc(-c2cc(Cl)c3ccccc3n2)cc1Cl,113 to 116

# From a melting point compilation (Tetko et al.; mined from patent text by program, amines drawn as free bases though some values may be those of a salt)
